The source of these data is PubChem BioAssay (NCI).

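96-well plates; 48 h exposure; 5 concentrations. Endpoints by linear interpolation between flanking doses. Not reached: highest tested concentration assigned. Here, GI50 denotes the concentration required for 50% inhibition of growth. At the TGI there is no net growth.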 Bounds are passed on as bounds.

This assay relates to MDA-MB-468 breast. Description: NCI anticancer screen, dose series, 48 h.

For `Nc1cc(N)c(N)cc1N`, the GI50 is 1.8 µM and the TGI was 4.48 µM.

As for `CC1OC2CC(=O)OC2C2=C1C(=O)c1c(O)c3c(c(O)c1C2=O)C1CC(O)C3(O)C(C)O1` (stereo not drawn), the GI50 was 0.229 µM and the TGI was 0.618 µM.

Turning to `Fc1cccc(COc2ccc(Nc3ncnc4cc(-c5ccc[nH]5)sc34)cc2Cl)c1`, the GI50 was 0.0446 µM and the TGI came out at 0.306 µM.

`Cc1nc2sc(C(=O)Nc3ccccc3)c(N)c2cc1C(=O)/C=C/c1ccccc1`: the GI50 was 1.73 µM and the TGI is 3.82 µM.

With `O=C(CCl)N1c2ccccc2Sc2c1ccc1ccccc21`, the GI50 was 2.09 µM and the TGI amounted to 3.95 µM.

Regarding `ClCc1c(Cl)c(Cl)c(Cl)c(CCl)c1Cl`, the GI50 is 1.57 µM and the TGI amounted to 3.11 µM.

On to `CNC(=O)c1cc(N2CCc3cc(NC(=O)Nc4ccc(N5CCOCC5)c(C(F)(F)F)c4)ccc32)ccn1`, for which the GI50 was 5.22 µM and the TGI is greater than 33.3 µM.

Regarding `CN(C)C(=S)N=Nc1c(O)[nH]c2ccccc12`, the GI50 is 0.482 µM and the TGI was found to be 3.46 µM.

`Oc1ccc(CCCCCCc2ccc(O)cc2)cc1`: the GI50 was 12.7 µM and the TGI turned out to be 32.9 µM.

As for `CCN(Cc1ccccc1OC)c1ccc(CO)c(Cl)c1`, the GI50 is 0.0372 µM and the TGI worked out at 0.214 µM.

For the compound `C#CC[C@@H]1C[C@]2(C)[C@H]3CC=C4[C@H]5CC(C)(C)CC[C@]5(C(=O)NCCCCN)CC[C@@]4(C)[C@]3(C)CC[C@H]2C(C)(C)[C@H]1OC(C)=O`, the GI50 is 1.71 µM and the TGI was 3.27 µM.

`O=C1/C(=C/c2ccc(O)cc2)COc2ccc(-c3ccccc3)cc21`: the GI50 is 3.32 µM and the TGI amounted to 11.4 µM.

For `CC(CNC(Cc1ccccc1)c1ccccc1)NC(Cc1ccccc1)c1ccccc1` (stereo not drawn), the GI50 was 1.74 µM and the TGI stood at 3.67 µM.

Turning to `c1cnc2[nH]cc(-c3csc(-c4cn(CCCCN5CCOCC5)c5ccccc45)n3)c2c1`, the GI50 was 2.07 µM and the TGI amounted to 3.99 µM.

For `Cn1ccnc1C(=O)/C=C/c1ccc(CC(=O)Nc2ccccc2)cc1`, the GI50 is 1.71 µM and the TGI worked out at 7.11 µM.

On to `C=C1C(=O)O[C@H]2[C@H]1CC/C(COC(=O)N1CCC[C@H]1C(=O)Nc1ccc(OC)c(C(N)=O)c1O)=C\CC[C@@]1(C)O[C@@H]21`, for which the GI50 was 1.06 µM and the TGI was found to be 3.46 µM.

On to `C[C@H]1[C@H](C)CC[C@]2(C(=O)O)CC[C@]3(C)C(=CC[C@@H]4[C@@]5(C)C/C(=C/c6cccnc6)[C@H](O)C(C)(C)[C@@H]5CC[C@]43C)[C@H]12`, for which the GI50 is 19.8 µM and the TGI stood at 80.1 µM.

In the case of `C=C1CC[C@@H]2[C@](C)(COC(C)=O)[C@H](OC(C)=O)CC[C@@]2(C)[C@@H]1CC(Nc1ccc(S(=O)(=O)Nc2nccc(C)n2)cc1)C1=CCOC1=O` (stereo partly drawn), the GI50 was 1.99 µM and the TGI was found to be 4.31 µM.

Turning to `CC(=C(c1ccc(OCCN(C)C)cc1)c1ccc(OCCN(C)C)cc1)c1ccc(Cl)cc1`, the GI50 was 0.827 µM and the TGI amounted to 3.24 µM.

As for `CC(=O)OCC1OC(n2ccc(=O)[nH]c2=O)C(OC(C)=O)C1OC(C)=O` (stereo not drawn), the GI50 is greater than 100 µM and the TGI is greater than 100 µM.

Consider `COC(=O)CNC(=O)[C@@H](OC)[C@@H]1Cc2cc3cc(OC4CC(OC5CC(O)C(O)C(C)O5)C(O)C(C)O4)c(C)c(O)c3c(O)c2C(=O)[C@H]1OC1CC(OC2CC(OC3CC(C)(O)C(O)C(C)O3)C(O)C(C)O2)C(O)C(C)O1` (stereo partly drawn), for which the GI50 was 0.162 µM and the TGI amounted to 1.31 µM.

As for `CSc1ccc(/C=C2\N=C(c3ccccc3)N(c3nc4ccc(Sc5ccccc5)cc4[nH]3)C2=O)cc1`, the GI50 is 4.44 µM and the TGI amounted to 25.8 µM.

On to `CC[C@H](CC#N)OC(=O)N[C@@H](C)c1cccc(NC(=O)Nc2ccc(-c3cnco3)c(OC)c2)c1`, for which the GI50 is 0.531 µM and the TGI was found to be 18.2 µM.

In the case of `COc1cc[nH]c1/C=C1\C(=O)Nc2ccc(F)c(I)c21`, the GI50 is greater than 5.39 µM and the TGI was greater than 25 µM.
